Measurements taken from ChEMBL document CHEMBL1201862, “PubChem BioAssay data set” (2004).
Activity calls are given as the source filed them. *1 amine or outer side, *2 acyl side, *3 side chain or, on linkers, in order; H or OH if unused. Where a SMILES comes first, the peptide text is derived from it. Bridges are numbered along the chain shown (N, C = ends). [ ]: non-standard residue; d: D form. ξ: configuration not given here. X1 = CC[C@H](CCC[C@@H](O)[C@@H](C)C(=O)O[C@H](C)[C@@H](C)C/C=C(C)/C(=C\C(=O)[*:1])OC)O[*:2]; NMeξIle = CC[C@H](C)C(NC)C(=O)O; NMeV = CN[C@H](C(=O)O)C(C)C; NMeS = CN[C@@H](CO)C(=O)O

Tests used:
HeLa = experiment: HeLa cell cytotoxicity, dose response, cytotoxicity control, ATP luminescence, cherry-pick samples (AID 687004); assay type: functional, cell-based; settings: Homo sapiens
[1] = molecular target: T1, Trace amine-associated receptor 1 (Homo sapiens, UniProt Q96RJ0); experiment: Fluorescence-based cell-based high throughput dose response assay to identify antagonists of the human trace amine associated receptor 1 (TAAR1).; assay type: functional
T1 sequence (Q96RJ0 whole entry): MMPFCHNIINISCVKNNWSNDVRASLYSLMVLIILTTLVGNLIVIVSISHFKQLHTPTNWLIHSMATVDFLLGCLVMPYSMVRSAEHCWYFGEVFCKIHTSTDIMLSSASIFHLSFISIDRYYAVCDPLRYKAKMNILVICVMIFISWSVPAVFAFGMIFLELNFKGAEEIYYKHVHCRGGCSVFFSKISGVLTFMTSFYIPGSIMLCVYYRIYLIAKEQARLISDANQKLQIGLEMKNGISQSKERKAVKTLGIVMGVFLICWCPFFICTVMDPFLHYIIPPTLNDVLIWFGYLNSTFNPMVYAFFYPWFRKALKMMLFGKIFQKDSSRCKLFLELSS

[2] = inhibitors of SNCA 5'UTR-driven reporter translation, confirmation, H4 neuroglioma cells, luminescence (AID 1988); assay type: functional, cell-based
[3] = inhibitors of firefly luciferase expression or activity, dose response, H4 neuroglioma cells, luminescence (AID 1990); assay type: functional, cell-based
[4] = Luminescence Cell-Based Dose Response HTS to Identify Inhibitors of 5'UTR Stem-Loop Driven Prion Protein mRNA Translation in H4 Neuroglioblastoma Cells. [Related pubchem assays: 1827 (Project Summary), 1813 (Primary HTS)]; assay type: functional
[5] = Counterscreen for […] of the human trace amine associated receptor 1 (TAAR1): Fluorescence-based cell-based high throughput dose response assay to identify nonselective Ga16 agonists.; assay type: functional
[6] = Counterscreen for antagonists of the human trace amine associated receptor 1 (hTAAR1): Fluorescence-based cell-based high throughput dose response assay to identify nonselective Ga16 antagonists.; assay type: functional
[7] = molecular target: T1, Trace amine-associated receptor 1; experiment: Counterscreen for antagonists of the human trace amine associated receptor 1 (hTAAR1): Fluorescence-based cell-based high throughput dose response assay to identify TAAR1 Agonists.; assay type: functional
[8] = HEK293T cell cytotoxicity, dose response, cytotoxicity control for HIV Vif inhibitor project, cherry-picks (AID 652208); assay type: functional, cell-based
[9] = cytotoxicity in HEK-293T cells, dose response, cytotoxicity control for TCR NF-kB inhibitor project, luminescence, T-cell screen hits (AID 489026); assay type: functional, cell-based;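 further: cells exposed to compound about 14 hours before the viability readout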
H4 = experiment: Luminescence Cell-Based Dose Response HTS to Identify Activators of 5'UTR Stem-Loop Driven Prion Protein mRNA Translation in H4 Neuroglioblastoma Cells. [Related pubchem assays: 1829 (Project Summary), 1814 (Primary HTS)]; assay type: functional; settings: Homo sapiens
[10] = Luminescence Cell-Based Dose Confirmation to Identify Activators of 5'UTR Stem-Loop Driven Alpha-Synuclein mRNA Translation in H4 Neuroglioblastoma Cells. [Related pubchem assays: 1829 (Project Summary), 1814 (Primary HTS)]; assay type: functional
Caspase-7 = Caspase-7 (Homo sapiens, UniProt P55210); experiment: human caspase-7 inhibitors, dose response, selectivity assay for caspase-6 inhibitor project, biochemical, DEVD-R110 fluorescence, cherry-pick (AID 743295)
Caspase-6 [11] = molecular target: T2, Caspase-6 (Homo sapiens, UniProt P55212); experiment: human caspase-6 inhibitors, dose response, biochemical, VEID-R110 fluorescence, dry powder retest (AID 743332)
T2 sequence (P55212 whole entry): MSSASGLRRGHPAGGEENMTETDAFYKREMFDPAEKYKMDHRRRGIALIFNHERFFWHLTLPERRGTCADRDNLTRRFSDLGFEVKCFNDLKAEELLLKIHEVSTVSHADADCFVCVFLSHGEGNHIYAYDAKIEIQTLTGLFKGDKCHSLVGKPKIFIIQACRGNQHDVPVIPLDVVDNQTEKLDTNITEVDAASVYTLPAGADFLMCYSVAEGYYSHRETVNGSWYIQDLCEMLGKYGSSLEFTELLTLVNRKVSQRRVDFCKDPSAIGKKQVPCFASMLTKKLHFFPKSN

[12] = Luminescence Cell-Based Dose Response to Identify Activators of Luciferase Translation or Activity in H4-C Neuroglioblastoma Cells. [Related pubchem assays: 1829 (Project Summary), 1814 (Primary HTS)]; assay type: functional
Caspase-6 [13] = molecular target: T2, Caspase-6; experiment: human caspase-6 inhibitors, dose response, biochemical, VEID-R110 fluorescence, cherry-pick (AID 720632)
INS1 = experiment: beta cell apoptosis inhibitors, cytokine rescue, dose response, luminescence, retest (AID 449756); assay type: functional, cell-based; settings: Rattus norvegicus;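 further: cell death triggered by IL-1 beta plus TNF-alpha plus IFN-gamma mixture; protective hits raise ATP signal compared with cytokine alone wells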
[14] = Luminescence Cell-Based Dose Response to Identify Activators of 5'UTR Stem-Loop Driven Prion Protein mRNA Translation in H4-C Neuroglioblastoma Cells. [Related pubchem assays: 1829 (Project Summary), 1814 (Primary HTS)]; assay type: functional
[15] = Luminescence Cell-Based Dose Response HTS to Identify Activators of Luciferase Translation or Activity in H4 […] Cells. [Related pubchem assays: 1829 (Project Summary), 1814 (Primary HTS)]; assay type: functional
BJ [16] = experiment: cytotoxicity toward BJ-TERT fibroblasts, dose response, cell-based, RAS-independent, luminescence (AID 1933); assay type: functional; settings: Homo sapiens
[17] = molecular target: SWI/SNF-related matrix-associated actin-dependent regulator of chromatin subfamily A member 2 (Homo sapiens, UniProt P51531); experiment: Luminescence-based cell-based high throughput dose response assay to identify activators of the function of SWI/SNF related, matrix associated, actin dependent regulator of chromatin, subfamily a, member 2 (SMARCA2, BRM).; assay type: functional
[18] = cytotoxicity toward DRD oncogenic fibroblasts, dose response, cell-based, non-viral oncogenic, luminescence (AID 1934); assay type: functional; settings: Homo sapiens
[19] = molecular target: Heat shock protein HSP 90-alpha (Homo sapiens, UniProt P07900); assay type: functional, organism-based
[20] = Counterscreen for activators of the function of SWI/SNF related, matrix associated, actin dependent regulator of chromatin, subfamily a, member 2 (SMARCA2, BRM): Luminescence-based cell-based high throughput dose response assay to identify non-selective compounds using the VP16 reporter assay.; assay type: functional
BJ [21] = experiment: cytotoxicity toward Ras-transformed BJeLR fibroblasts, dose response, cell-based, alamar blue fluorescence, cherrypicked samples (AID 2631); assay type: functional; settings: Homo sapiens;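 further: confirmatory dose-response assay in RAS-dependent BJ fibroblasts engineered with TERT, LT and ST, with cytotoxicity read by fluorescence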
BJ [22] = experiment: cells; assay type: functional, cell-based; settings: Homo sapiens
[23] = Luminescence Cell-Based Dose Retest to Confirm Inhibitors of Cancer Stem Cells. [Related pubchem assays (depositor defined):AID2717, AID2721]; assay type: functional; settings: Homo sapiens
BJ [24] = experiment: cytotoxicity toward BJ-TERT-LT-ST fibroblasts, dose response, cell-based, RAS-independent, luminescence (AID 1935); assay type: functional; settings: Homo sapiens;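 further: BJ fibroblasts immortalized with TERT plus LT and ST oncogenes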
A549 = experiment: A549 cell toxicity, dose response, cytotoxicity control, plate reader, cherry-pick samples (AID 687028); assay type: functional, cell-based; settings: Homo sapiens
[25] = molecular target: T3, Scavenger receptor class B member 1 (Mus musculus, UniProt Q61009); experiment: inhibitors of SR-BI dependent HDL uptake, dose response, ldlA[mSR-BI] CHO cells, fluorescence plate reader, dry powder, set 9 (AID 623880); assay type: functional, cell-based
[26] = molecular target: T3, Scavenger receptor class B member 1; experiment: inhibitors of SR-BI-mediated HDL uptake, dose response, cell-based, ldlA[mSR-BI] CHO, DiI fluorescence, dry powder, set 10 (AID 624029); assay type: functional
[27] = cytotoxicity in ldlA[mSR-BI] CHO cells, dose response, cytotoxicity control for SR-BI HDL uptake inhibitor project, cell-based, CellTiter-Glo, 24 h, powder samples, set 7 (AID 624026); assay type: functional
[28] = cytotoxicity in HeLa cells, dose response, cytotoxicity control, cell-based, 24 h, dry powder, set 2 (AID 651774); assay type: functional
Protein skinhead-1 = molecular target: T4, Protein skinhead-1 (Caenorhabditis elegans, UniProt P34707); assay type: functional
T4 sequence (P34707 whole entry): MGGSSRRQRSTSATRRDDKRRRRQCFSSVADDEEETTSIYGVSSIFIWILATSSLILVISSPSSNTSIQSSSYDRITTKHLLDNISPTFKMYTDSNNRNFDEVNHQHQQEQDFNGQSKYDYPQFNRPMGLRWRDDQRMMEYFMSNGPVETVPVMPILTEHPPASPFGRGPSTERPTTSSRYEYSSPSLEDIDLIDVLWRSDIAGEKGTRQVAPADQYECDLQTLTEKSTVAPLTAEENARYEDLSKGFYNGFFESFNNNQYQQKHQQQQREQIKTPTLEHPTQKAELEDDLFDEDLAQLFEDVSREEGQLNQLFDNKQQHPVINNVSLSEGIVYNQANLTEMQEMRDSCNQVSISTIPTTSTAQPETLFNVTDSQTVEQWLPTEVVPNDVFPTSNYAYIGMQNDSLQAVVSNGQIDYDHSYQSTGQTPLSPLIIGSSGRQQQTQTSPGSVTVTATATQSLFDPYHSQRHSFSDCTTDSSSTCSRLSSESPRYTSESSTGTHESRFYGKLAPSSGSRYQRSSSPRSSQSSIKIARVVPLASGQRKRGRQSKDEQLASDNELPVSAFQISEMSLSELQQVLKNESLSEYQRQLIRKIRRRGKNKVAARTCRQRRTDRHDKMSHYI

cells = assay type: functional, cell-based; settings: HEK-CNG
Galanin receptor type 3 = Galanin receptor type 3 (Homo sapiens, UniProt O60755); experiment: Fluorescence-based cell-based primary high throughput dose response assay to identify antagonists of the Galanin Receptor 3 (GalR3).; assay type: functional
Paired box protein Pax-8 = Paired box protein Pax-8 (Homo sapiens, UniProt Q06710); experiment: inhibitors of PAX8-driven TPO luciferase reporter, dose response, RMG-I cells, cherry-pick (AID 687027); assay type: functional, cell-based;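 further: luciferase reporter driven by Pax8 target thyroperoxidase promoter measured by SteadyGlo luminescence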
[29] = control 3'UTR Renilla luciferase suppression, dose response, counter-screen for Shn3 inhibitor project, cell-based, Clone20-Shn3RL, cherry-picked (AID 624133); assay type: functional
[30] = Shn3 3'UTR reporter inhibitors, dose response, cell-based, Clone20 osteoblasts, firefly luciferase, cherry-picked (AID 624132); assay type: functional;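 further: firefly luciferase luminescence from reporter carrying the Shn3 3'UTR in osteoblasts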

T3 sequence (Q61009 whole entry): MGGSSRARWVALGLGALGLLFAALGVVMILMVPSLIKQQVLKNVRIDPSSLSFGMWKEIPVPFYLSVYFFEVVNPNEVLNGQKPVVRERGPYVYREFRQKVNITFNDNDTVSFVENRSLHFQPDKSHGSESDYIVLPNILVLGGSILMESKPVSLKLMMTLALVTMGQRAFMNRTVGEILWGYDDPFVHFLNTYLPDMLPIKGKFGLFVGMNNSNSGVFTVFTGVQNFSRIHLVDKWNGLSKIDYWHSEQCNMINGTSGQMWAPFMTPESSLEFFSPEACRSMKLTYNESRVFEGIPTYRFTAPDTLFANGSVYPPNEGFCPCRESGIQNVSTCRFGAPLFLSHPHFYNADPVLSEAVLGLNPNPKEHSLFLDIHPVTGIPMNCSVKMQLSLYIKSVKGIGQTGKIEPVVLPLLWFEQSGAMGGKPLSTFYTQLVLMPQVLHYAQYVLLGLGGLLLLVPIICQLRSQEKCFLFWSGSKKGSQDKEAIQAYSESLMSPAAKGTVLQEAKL
Chain of Caspase-7 (P55210 24-198 limits assumed): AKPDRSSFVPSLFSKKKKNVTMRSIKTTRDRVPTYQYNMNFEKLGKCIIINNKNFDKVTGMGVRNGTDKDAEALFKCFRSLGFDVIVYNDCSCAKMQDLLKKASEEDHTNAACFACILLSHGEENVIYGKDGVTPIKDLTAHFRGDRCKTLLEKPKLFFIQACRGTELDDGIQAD
Chain of Caspase-7 (P55210 207-303 limits assumed): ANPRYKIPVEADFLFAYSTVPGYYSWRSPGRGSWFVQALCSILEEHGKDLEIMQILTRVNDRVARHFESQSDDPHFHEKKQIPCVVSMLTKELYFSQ
Chain of Paired box protein Pax-8 (Q06710 whole entry): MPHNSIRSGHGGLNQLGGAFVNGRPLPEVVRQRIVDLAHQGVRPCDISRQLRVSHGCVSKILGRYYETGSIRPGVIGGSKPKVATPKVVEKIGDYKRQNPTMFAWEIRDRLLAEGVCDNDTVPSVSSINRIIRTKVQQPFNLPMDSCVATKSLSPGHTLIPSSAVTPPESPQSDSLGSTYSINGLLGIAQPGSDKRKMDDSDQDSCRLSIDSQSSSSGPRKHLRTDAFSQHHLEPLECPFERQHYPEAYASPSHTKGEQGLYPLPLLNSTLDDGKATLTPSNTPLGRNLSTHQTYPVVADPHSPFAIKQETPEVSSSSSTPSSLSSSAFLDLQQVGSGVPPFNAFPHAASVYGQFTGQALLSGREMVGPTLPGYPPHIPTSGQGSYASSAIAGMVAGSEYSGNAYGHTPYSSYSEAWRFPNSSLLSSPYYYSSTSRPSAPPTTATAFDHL
Chain of SWI/SNF-related matrix-associated actin-dependent regulator of chromatin subfamily A member 2 (P51531 whole entry): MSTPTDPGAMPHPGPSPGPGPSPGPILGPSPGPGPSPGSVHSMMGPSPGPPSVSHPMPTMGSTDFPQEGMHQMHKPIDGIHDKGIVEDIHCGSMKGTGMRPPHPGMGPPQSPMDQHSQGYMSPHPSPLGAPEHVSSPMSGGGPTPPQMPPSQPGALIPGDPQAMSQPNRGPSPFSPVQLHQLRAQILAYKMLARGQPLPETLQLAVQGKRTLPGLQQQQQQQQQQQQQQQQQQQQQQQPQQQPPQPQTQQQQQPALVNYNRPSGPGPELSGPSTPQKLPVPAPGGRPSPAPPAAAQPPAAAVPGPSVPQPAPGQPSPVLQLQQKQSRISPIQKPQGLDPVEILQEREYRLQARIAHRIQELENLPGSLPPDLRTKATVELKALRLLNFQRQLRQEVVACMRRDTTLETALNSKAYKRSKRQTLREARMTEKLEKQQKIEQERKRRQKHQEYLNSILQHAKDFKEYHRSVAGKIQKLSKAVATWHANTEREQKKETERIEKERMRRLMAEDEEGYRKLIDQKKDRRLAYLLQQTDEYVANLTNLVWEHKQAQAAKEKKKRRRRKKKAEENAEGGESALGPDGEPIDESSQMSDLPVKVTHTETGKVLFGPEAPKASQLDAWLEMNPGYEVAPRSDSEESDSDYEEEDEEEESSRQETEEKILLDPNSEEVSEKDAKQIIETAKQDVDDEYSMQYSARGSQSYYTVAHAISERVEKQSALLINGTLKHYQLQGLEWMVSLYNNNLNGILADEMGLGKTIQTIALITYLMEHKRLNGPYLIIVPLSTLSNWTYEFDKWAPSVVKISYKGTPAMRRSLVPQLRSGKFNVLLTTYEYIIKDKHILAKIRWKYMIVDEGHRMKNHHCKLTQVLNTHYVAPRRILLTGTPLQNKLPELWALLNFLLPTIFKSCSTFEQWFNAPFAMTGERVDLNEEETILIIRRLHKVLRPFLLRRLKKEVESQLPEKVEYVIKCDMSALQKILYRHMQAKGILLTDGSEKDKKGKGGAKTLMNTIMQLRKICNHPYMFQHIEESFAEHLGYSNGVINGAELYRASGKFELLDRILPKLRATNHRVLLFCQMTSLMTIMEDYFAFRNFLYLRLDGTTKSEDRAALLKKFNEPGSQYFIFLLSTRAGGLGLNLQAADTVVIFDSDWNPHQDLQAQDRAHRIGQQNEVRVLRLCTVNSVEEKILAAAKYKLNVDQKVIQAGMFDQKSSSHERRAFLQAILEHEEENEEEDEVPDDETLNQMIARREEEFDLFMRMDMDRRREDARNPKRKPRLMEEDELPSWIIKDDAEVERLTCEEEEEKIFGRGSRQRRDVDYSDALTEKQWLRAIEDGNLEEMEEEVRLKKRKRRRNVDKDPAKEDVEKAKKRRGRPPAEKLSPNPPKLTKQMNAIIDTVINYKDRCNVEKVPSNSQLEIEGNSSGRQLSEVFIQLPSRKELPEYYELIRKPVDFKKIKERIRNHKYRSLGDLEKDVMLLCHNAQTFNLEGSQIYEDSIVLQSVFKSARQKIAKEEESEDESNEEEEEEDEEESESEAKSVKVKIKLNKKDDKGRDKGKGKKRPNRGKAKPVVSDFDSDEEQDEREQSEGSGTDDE
Chain of Galanin receptor type 3 (O60755 whole entry): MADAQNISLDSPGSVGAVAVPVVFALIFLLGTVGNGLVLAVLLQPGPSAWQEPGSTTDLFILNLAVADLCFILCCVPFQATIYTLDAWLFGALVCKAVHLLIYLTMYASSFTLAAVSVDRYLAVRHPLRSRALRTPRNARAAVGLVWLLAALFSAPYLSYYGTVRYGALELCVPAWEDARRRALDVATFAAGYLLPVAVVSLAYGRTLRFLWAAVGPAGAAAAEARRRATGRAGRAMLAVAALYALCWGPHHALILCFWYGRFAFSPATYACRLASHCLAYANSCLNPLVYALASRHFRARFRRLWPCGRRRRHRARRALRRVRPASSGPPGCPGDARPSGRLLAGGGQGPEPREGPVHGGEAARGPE

For `COc1ccc(C(=O)NC(=S)Nc2ccccc2N2CCOCC2)cc1[N+](=O)[O-]`, the AC50 (HeLa) was > 52 µM (inactive).
With `Cc1ccccc1N(C(=O)c1snc(C(N)=O)c1N)C(C(=O)NC1CCCCC1)c1ccc(O)cc1` (stereo not given) the IC50 [1] was 3.16 µM (active), the EC50 [2] was 77.7 µM (active) and the EC50 [3] was 12.8 µM (active). The EC50 [4] was > 120 µM (not active), the EC50 [5] was > 29.9 µM (inactive) and the IC50 [6] was > 29.9 µM (inactive). For the same compound, the EC50 [7] was > 29.9 µM (inactive).
For `CCCOCCOC(=O)c1[nH]c2c(c1C)C(=O)CC(c1cc(OC)ccc1OC)C2` (stereo not given), the AC50 [8] was > 52 µM (inactive) and the IC50 [9] was > 80 µM (inactive).
For `[O-][n+]1onc2c1CCc1c-2nn(-c2ccccc2Cl)[n+]1[O-]`, the EC50 (H4) was > 120 µM (not active), the EC50 [10] was 0.766 µM (active) and the AC50 (Caspase-7) was > 70 µM (inactive). The AC50 (Caspase-6 [11]) was 4.66 µM (active), the EC50 [12] was 1.41 µM (active) and the AC50 (Caspase-6 [13]) was 0.651 µM (active). The AC50 (INS1) was 6.94 µM (active), the EC50 [14] was > 12 µM (not active) and the EC50 [15] was < 0.1 µM (inconclusive).
For `O=C1C=C(c2cccs2)C[C@H](c2ccccc2)[C@H]1n1nnc([N+](=O)[O-])n1`, the EC50 (BJ [16]) was 10.3 µM (inconclusive), the EC50 [17] was > 91.2 µM (inactive) and the EC50 [18] was 5.51 µM (inconclusive). The AC50 [19] was 7.95 µM (active), the EC50 [20] was > 91.2 µM (inactive) and the EC50 (BJ [21]) was 0.242 µM (active). For the same compound, the EC50 (BJ [22]) was 9.02 µM (inconclusive), the AC50 (INS1) was 4.33 µM (active) and the AC50 [23] was 0.835 µM (active). The EC50 (BJ [24]) was 3.85 µM (inconclusive).
For `COc1ccc(S(=O)(=O)Nc2ccc3c(c2)C(=O)N([C@@H](C)CO)C[C@H](C)[C@H](CN(C)C(=O)Nc2ccc(C(F)(F)F)cc2)OCCCC[C@H](C)O3)cc1`, the AC50 (A549) was 24.9 µM (active).
In the case of `CC.CCCCCCC1CCC/C1=N\NC(N)=S` (stereo not given), the AC50 [25] is reported as 0.00737 µM (active), the AC50 [26] is reported as 0.005 µM (active) and the AC50 [27] is reported as 2.08 µM (active).
With `CCn1nnnc1NC(=O)c1ccc(N2CCCC2)cc1` the AC50 [28] was 19.7 µM (active).
With `CC[C@@H]1CCC[C@@H](O)[C@@H](C)C(=O)O[C@H](C)[C@@H](C)C/C=C(C)/C(OC)=C\C(=O)N(C)C([C@@H](C)CC)C(=O)N(C)[C@@H](C(C)C)C(=O)N(C)[C@@H](COC)C(=O)N2CCC[C@H]2C(=O)N(C)[C@@H](C(C)C)C(=O)N2CCC[C@H]2C(=O)O1` (stereo not given in full) ([NMeξIle][NMeV][NMeS](Me)P[NMeV]P; linker N-C via X1) the IC50 (Protein skinhead-1) was 57.6 µM (inactive), the EC50 (cells) was > 29.9 µM (inactive) and the IC50 (Galanin receptor type 3) was 0.0171 µM (active). For the same compound, the AC50 (Paired box protein Pax-8) was < 0.26 µM (active), the AC50 [29] was 0.317 µM (active) and the AC50 [30] was < 0.26 µM (active).
